This note sets out measurements from publication PMC5201275, “Structural and Catalytic Properties of S1 Nuclease from Aspergillus oryzae Responsible for Substrate Recognition, Cleavage, Non–Specificity, and Inhibition” (PLoS ONE, 2016).

The assay concerns the target T1, S1 nuclease (S1wt; S1D65N) (Aspergillus oryzae, UniProt P24021).
T1 construct: gene nucS; Endo F1 deglycosylated for crystals; three Zn2+
T1 sequence (P24021 21-287): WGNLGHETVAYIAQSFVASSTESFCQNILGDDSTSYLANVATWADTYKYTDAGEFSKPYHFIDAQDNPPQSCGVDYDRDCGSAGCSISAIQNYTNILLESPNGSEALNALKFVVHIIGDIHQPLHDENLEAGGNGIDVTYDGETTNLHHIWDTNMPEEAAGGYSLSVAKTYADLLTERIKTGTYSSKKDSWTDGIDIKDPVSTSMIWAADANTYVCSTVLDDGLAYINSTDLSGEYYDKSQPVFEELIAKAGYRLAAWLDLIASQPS
Briefly: X-ray crystal structure. Type of assay: binding.

Regarding `O=P(O)(O)O` [Pi, phosphate ion], the X-ray crystal structure entry (pH 5.5, zinc cluster, first binding mode, occupancy 0.5, not added (no co-crystallization), also in 5FBB (pH 6.5) and 5FBD (pH 4.2, second mode)) is listed as “A phosphate ion inside the zinc cluster in the first binding mode is modeled”.
For the compound `Nc1ccn([C@H]2C[C@H](O)[C@@H](CO)O2)c(=O)n1` [dCyt, 2'–deoxycytidine], the X-ray crystal structure entry (pH 4.2, NBS1, shallow mode, with phosphate in zinc cluster, co-crystallized with dC(pS)dC) was “The structure contains one phosphate ion and one molecule of dCyt in the active site”.
